Experimental data: PubChem BioAssay AID1745844 (Carcinogenic Potency Database (CPDB), 2022)
Activity calls are given as the source filed them. No rule for the calls is given here.

System: rodent lifetime carcinogenesis bioassay, tumor incidence TD50
Assay: carcinogenic potency in animals, long-term in vivo studies, CPDB compilation (AID 1745844)

Question: With `Cc1csc(NNC=O)n1` as the compound, how does the TD50 (rat, strain Sprague-Dawley, females, in feed, site: any site (literature study), lesion: several types, types named in the paper, dosed 46 weeks, study length 64 weeks) read?
Answer: 14.4 mg/kg/day

Question: And the TD50 (rat, strain Sprague-Dawley, females, in feed, site: mammary gland, lesion: adenofibroma, dosed 46 weeks, study length 64 weeks)?
Answer: 14.4 mg/kg/day

Question: How did the TD50 (hamster, strain Syrian Golden, females, by gavage, site: forestomach, lesion: several types, types named in the paper, dosed 30 weeks, study length 104 weeks) turn out when `O=NN1CCOC1` was run?
Answer: 2.61 mg/kg/day

Question: And the TD50 (hamster, strain Syrian Golden, males, by gavage, site: any site (literature study), lesion: several types, types named in the paper, dosed 35 weeks, study length 65 weeks)?
Answer: 0.267 mg/kg/day

Question: What about the TD50 (hamster, strain Syrian Golden, males, by gavage, site: liver, lesion: cholangiocarcinoma, dosed 35 weeks, study length 65 weeks) of the same compound?
Answer: 0.471 mg/kg/day

Question: What about the TD50 (hamster, strain Syrian Golden, males, by gavage, site: liver, lesion: hepatocellular adenoma, dosed 35 weeks, study length 65 weeks) of the same compound?
Answer: 0.949 mg/kg/day

Question: What about the TD50 (hamster, strain Syrian Golden, males, by gavage, site: liver, lesion: hepatocellular carcinoma, dosed 35 weeks, study length 65 weeks) of the same compound?
Answer: 2.63 mg/kg/day

Question: And the TD50 (hamster, strain Syrian Golden, males, by gavage, site: lung, lesion: carcinoma, dosed 35 weeks, study length 65 weeks)?
Answer: 14.8 mg/kg/day

Question: `COc1c(Cl)c(Cl)c(Cl)c(Cl)c1Cl` was tested. Which TD50 (mouse, strain B6C3F1, females, by gavage, site: any site (literature study), lesion: several types, types named in the paper, dosed 103 weeks, study length 104 weeks) did it give?
Answer: 47.5 mg/kg/day (inactive)

Question: What about the TD50 (mouse, strain B6C3F1, females, by gavage, site: liver, lesion: hepatocellular adenoma + hepatocellular carcinoma + neoplastic nodule, dosed 103 weeks, study length 104 weeks) of the same compound?
Answer: 63 mg/kg/day

Question: And the TD50 (mouse, strain B6C3F1, females, by gavage, site: lung, lesion: alveolar/bronchiolar adenoma + alveolar/bronchiolar carcinoma, dosed 103 weeks, study length 104 weeks)?
Answer: 776 mg/kg/day

Question: What about the TD50 (mouse, strain B6C3F1, males, by gavage, site: adrenal medulla + liver, lesion: pheochromocytoma, benign + hemangiosarcoma, dosed 103 weeks, study length 104 weeks) of the same compound?
Answer: 38.3 mg/kg/day

Question: And the TD50 (mouse, strain B6C3F1, males, by gavage, site: adrenal medulla, lesion: pheochromocytoma, benign, dosed 103 weeks, study length 104 weeks)?
Answer: 77.4 mg/kg/day

Question: What about the TD50 (mouse, strain B6C3F1, males, by gavage, site: any site (literature study), lesion: several types, types named in the paper, dosed 103 weeks, study length 104 weeks) of the same compound?
Answer: 40.2 mg/kg/day

Question: What about the TD50 (mouse, strain B6C3F1, males, by gavage, site: liver, lesion: hemangiosarcoma, dosed 103 weeks, study length 104 weeks) of the same compound?
Answer: 68 mg/kg/day

Question: What about the TD50 (rat, strain Fischer 344, females, by gavage, site: adrenal medulla, lesion: pheochromocytoma, benign, dosed 103 weeks, study length 104 weeks) of the same compound?
Answer: 174 mg/kg/day

Question: And the TD50 (rat, strain Fischer 344, females, by gavage, site: liver, lesion: hepatocellular adenoma + hepatocellular carcinoma + neoplastic nodule, dosed 103 weeks, study length 104 weeks)?
Answer: 1180 mg/kg/day

Question: And the TD50 (rat, strain Fischer 344, males, by gavage, site: adrenal medulla, lesion: pheochromocytoma, benign, dosed 103 weeks, study length 104 weeks)?
Answer: 24.8 mg/kg/day

Question: What about the TD50 (rat, strain Fischer 344, males, by gavage, site: adrenal medulla, lesion: pheochromocytoma, malignant + pheochromocytoma, benign, dosed 103 weeks, study length 104 weeks) of the same compound?
Answer: 30 mg/kg/day

Question: What about the TD50 (rat, strain Fischer 344, males, by gavage, site: liver, lesion: hepatocellular adenoma + hepatocellular carcinoma + neoplastic nodule, dosed 103 weeks, study length 104 weeks) of the same compound?
Answer: 6460 mg/kg/day

Question: `O[C@@H]([C@H](O)[C@H](O)CBr)[C@H](O)CBr` was tested. Which TD50 (mouse, strain Swiss, females, i.p., site: adrenal gland, lesion: cortical adenoma, dosed 26 weeks, study length 78 weeks) did it give?
Answer: 136 mg/kg/day

Question: What about the TD50 (mouse, strain Swiss, females, i.p., site: all sites, lesion: lymphatic leukemia, dosed 26 weeks, study length 78 weeks) of the same compound?
Answer: 89.8 mg/kg/day

Question: And the TD50 (mouse, strain Swiss, females, i.p., site: all sites, lesion: lymphosarcoma, dosed 26 weeks, study length 78 weeks)?
Answer: 38.4 mg/kg/day

Question: And the TD50 (mouse, strain Swiss, females, i.p., site: any site (literature study), lesion: benign tumor, dosed 26 weeks, study length 78 weeks)?
Answer: 130 mg/kg/day

Question: What about the TD50 (mouse, strain Swiss, females, i.p., site: any site (literature study), lesion: malignant tumor, dosed 26 weeks, study length 78 weeks) of the same compound?
Answer: 11.2 mg/kg/day

Question: And the TD50 (mouse, strain Swiss, females, i.p., site: any site (literature study), lesion: several types, types named in the paper, dosed 26 weeks, study length 78 weeks)?
Answer: 7.67 mg/kg/day

Question: What about the TD50 (mouse, strain Swiss, females, i.p., site: lung, lesion: several types, types named in the paper, dosed 26 weeks, study length 78 weeks) of the same compound?
Answer: 21.4 mg/kg/day

Question: And the TD50 (mouse, strain Swiss, females, i.p., site: subcutaneous tissue, lesion: carcinoma, dosed 26 weeks, study length 78 weeks)?
Answer: 66 mg/kg/day

Question: What about the TD50 (mouse, strain Swiss, males, i.p., site: any site (literature study), lesion: benign tumor, dosed 26 weeks, study length 78 weeks) of the same compound?
Answer: 92.8 mg/kg/day

Question: And the TD50 (mouse, strain Swiss, males, i.p., site: any site (literature study), lesion: malignant tumor, dosed 26 weeks, study length 78 weeks)?
Answer: 8.53 mg/kg/day

Question: And the TD50 (mouse, strain Swiss, males, i.p., site: any site (literature study), lesion: several types, types named in the paper, dosed 26 weeks, study length 78 weeks)?
Answer: 6.03 mg/kg/day

Question: And the TD50 (mouse, strain Swiss, males, i.p., site: liver, lesion: several types, types named in the paper, dosed 26 weeks, study length 78 weeks)?
Answer: 65.7 mg/kg/day

Question: And the TD50 (mouse, strain Swiss, males, i.p., site: lung, lesion: several types, types named in the paper, dosed 26 weeks, study length 78 weeks)?
Answer: 11.4 mg/kg/day

Question: And the TD50 (rat, strain Charles River CD (Sprague-Dawley), females, i.p., site: any site (literature study), lesion: malignant tumor, dosed 26 weeks, study length 78 weeks)?
Answer: 11.5 mg/kg/day

Question: And the TD50 (rat, strain Charles River CD (Sprague-Dawley), females, i.p., site: any site (literature study), lesion: several types, types named in the paper, dosed 26 weeks, study length 78 weeks)?
Answer: 12.5 mg/kg/day

Question: And the TD50 (rat, strain Charles River CD (Sprague-Dawley), females, i.p., site: lung, lesion: carcinoma, dosed 26 weeks, study length 78 weeks)?
Answer: 84.6 mg/kg/day

Question: What about the TD50 (rat, strain Charles River CD (Sprague-Dawley), females, i.p., site: mammary gland, lesion: adenocarcinoma, dosed 26 weeks, study length 78 weeks) of the same compound?
Answer: 24.9 mg/kg/day

Question: And the TD50 (rat, strain Charles River CD (Sprague-Dawley), females, i.p., site: peritoneum, lesion: sarcoma, dosed 26 weeks, study length 78 weeks)?
Answer: 79.2 mg/kg/day

Question: What about the TD50 (rat, strain Charles River CD (Sprague-Dawley), males, i.p., site: any site (literature study), lesion: benign tumor, dosed 26 weeks, study length 78 weeks) of the same compound?
Answer: 16.6 mg/kg/day

Question: And the TD50 (rat, strain Charles River CD (Sprague-Dawley), males, i.p., site: any site (literature study), lesion: several types, types named in the paper, dosed 26 weeks, study length 78 weeks)?
Answer: 7.95 mg/kg/day

Question: What about the TD50 (rat, strain Charles River CD (Sprague-Dawley), males, i.p., site: mammary gland, lesion: fibroadenoma, dosed 26 weeks, study length 78 weeks) of the same compound?
Answer: 255 mg/kg/day

Question: And the TD50 (rat, strain Charles River CD (Sprague-Dawley), males, i.p., site: peritoneum, lesion: sarcoma, dosed 26 weeks, study length 78 weeks)?
Answer: 30.9 mg/kg/day

Question: And the TD50 (rat, strain Charles River CD (Sprague-Dawley), males, i.p., site: skin, lesion: several types, types named in the paper, dosed 26 weeks, study length 78 weeks)?
Answer: 103 mg/kg/day
